For orientation: pEC50 means −log10 of the EC50, conventionally taken in molar units. As a reminder, the inhibition is the drop in the measured response relative to a control, in per cent.

For assay [1], the target named is recombinant DYRK1A kinase (Homo sapiens (Human), UniProt Q13627). The experiment in a line: DYRK1A kinase assay (Ser/Thr 18 peptide Z-lyte, FRET).
Assay [2] concerns the target recombinant GSK3β kinase (Homo sapiens (Human), UniProt P49841). The experiment in a line: GSK3β kinase assay (Ser/Thr 09 peptide Z-lyte, FRET). It is filed as biochemical.
Assay [3] deals with SW480 colon carcinoma cells. In words: Cell viability assay (CellTiter-Glo) in SW480 cells. The assay is classed as cell-based, human. The note with it: four days. On the procedure:
SW480 colon carcinoma cells were transduced with a lentiviral vector expressing luciferase with a human Sp5 promoter consisting of a sequence of eight TCF/LEF binding sites. SW480 cells stably expressing the Sp5-Luc reporter gene and a hygromycin resistance gene were selected by treatment with 150 µg/mL of hygromycin for 7 days. These stably transduced SW480 cells were expanded in cell culture and used for all further screening activities.
For the Cell Viability Assays, the cells were plated at 2,000 cells/well in 384-well plates with a DMEM medium containing 1% fetal bovine serum, and 1% Penicillin-Streptomycin and incubated for […] at 37° C. and 5% CO2. Eight replicates of DMSO-treated cells served as controls and cells treated with compound were performed in duplicate.
After incubation, 10 μL of CellTiter-Glo (Promega) was added to each well allowed to incubate for approximately 12 minutes. This reagent “results in cell lysis and generation of a luminescent signal proportional to the amount of ATP present. The amount of ATP is directly proportional to the number of cells present in culture, in agreement with previous reports. The CellTiter-Glo® Assay generates a “glow-type” luminescent signal, produced by the luciferase reaction (Promega.com)”.
A general note: In ATP-based viability assays light output follows the ATP content of the culture.

Assay [4] has as its system primary human fibroblasts derived from IPF patients (LL29 cells), α-smooth muscle actin. The experiment in a line: Inhibition of fibrotic process: αSMA in TGF-β1 treated LL29 fibroblasts. It is filed as cell-based. The note with it: LL29 cells, TGF-β1 20 ng/mL, 4 days, % cells positive for αSMA. On the procedure: Representative compounds were screened using primary human fibroblasts (derived from IPF patients) treated with TGF-β1 to determine their ability to inhibit the fibrotic process.
LL29 cells were plated at 1,500 cells/well in 70 μL/well F12 medium supplemented with 1% Fetal Bovine Serum. […] Wells treated with TGF-β1 and containing DMSO were used as positive control, and cells with only DMSO were negative control. […] Following incubation for 4 days, SYTOX green nucleic acid stain (Life Technologies [Thermo Fisher Scientific]) was added to the wells at a final concentration of 1 μM and incubated at room temperature for 30 min.

Assay [5] deals with IL-6. In words: IL-6 inhibition in LPS-stimulated human peripheral blood mononuclear cells (HTRF). It is filed as cell-based. As to conditions: for pEC50: huPBMCs, LPS 50 ng/mL, 22 hours, IL-6 HTRF. Here is the method:
Fresh Normal PB MNC (Catalog # PB001, AllCells, Alameda, Calif.) were shipped overnight at 4° C. and resuspended in Roswell Park Memorial Institute (RPMI) 1640 Medium, with GlutaMAX Supplement (Catalog #61870127, ThermoFisher Scientific, Waltham, Mass.) supplemented with 1% Penicillin-Streptomycin (Catalog #15140163, ThermoFisher Scientific, Waltham, Mass.) and 1% fetal bovine serum (FBS) (Catalog #16140089, ThermoFisher Scientific, Waltham, Mass.) assay media.
Fresh normal human peripheral blood mononuclear cells (huPBMCs) were resuspended in 1% FBS-RPMI assay media with 1% Penicillin-Streptomycin 1% to a cell concentration of 1×10e6 cells/mL. […] 50 ng/mL of Lipopolysaccharides from Escherichia coli 0111:B4 (Catalog #L5293-2ML, Sigma-Aldrich, St. Louis, Mo.) was added after 2 hours and cells were incubated for another 22 hours at 37° C.-5% CO2. After 22 hour incubation, a mixture of anti-IL6 XL665 and anti-IL-6 Cryptate diluted in reconstitution buffer (Catalog #62IL6PEC, Cisbio Inc., Bedford, Mass.) was added to each well. Following incubation for 3 hours at room temperature, Homogeneous Time-Resolved Fluorescence (HTRF) was measured using the Envision (Perkin Elmer, Shelton, Conn.) at 665 nm and […]. The ratio of fluorescence at 665 nm to 620 nm was used as a readout for IL-6 quantification. All samples were processed in duplicate. Readings were normalized to DMSO treated cells and normalized activities were utilized for EC50 calculations. EC50 was determined using software generated by Dotmatics Limited (Windhill Bishops Stortford Herts, UK) using the Levenberg-Marquardt 4 parameter fitting procedure with finite different gradients.

The test system of assay [6] is Wnt-responsive promoter (Sp5-Luc reporter) in SW480 colon carcinoma cells. In words: Sp5-Luc reporter gene screening assay for Wnt activity in SW480 cells. The assay is classed as cell-based, human. The note with it: 36 to 48 hours, luminescence. The source says:
The screening assay for Wnt activity is described as follows. Reporter cell lines can be generated by stably transducing cancer cell lines (e.g., colon cancer) or primary cells (e.g., IEC-6 intestinal cells) with a lentiviral construct that includes a Wnt-responsive promoter driving expression of the firefly luciferase gene.
SW480 colon carcinoma cells were transduced with a lentiviral vector expressing luciferase with a human Sp5 promoter consisting of a sequence of eight TCF/LEF binding sites. SW480 cells stably expressing the Sp5-Luc reporter gene and a hygromycin resistance gene were selected by treatment with 150 μg/mL of hygromycin for 7 days. These stably transduced SW480 cells were expanded in cell culture and used for all further screening activities. […] For Sp5-Luc reporter gene assays, the cells were plated at 4,000 cells/well in 384-well plates with a DMEM medium containing 1% fetal bovine serum, and 1% Penicillin-Streptomycin and incubated for 36 to 48 hours at 37° C. and 5% CO2. Following incubation, 15 μl of BriteLite Plus luminescence reagent (Perkin Elmer) was added to each well of the 384-well assay plates. The plates were placed on an orbital shaker for 2 min and then luminescence was quantified using the Envision (Perkin Elmer) plate reader. Readings were normalized to DMSO only treated cells, and normalized activities were utilized for EC50 calculations using the dose-response log (inhibitor) vs. response −variable slope (four parameters) nonlinear regression feature available in GraphPad Prism 5.0 (or Dotmatics).
A general note: Reporter assays use an easily measured gene product as a stand-in for the process of interest.

The mark [7] stands for this setting: DYRK1A kinase, 30 μM ATP, one hour, method calls values IC50.
The mark [8] stands for this setting: GSK3β kinase, 46 μM ATP, one hour, method calls values IC50.

pEC50: −log10 of the molar value. Like-named read-outs stand apart in the source and are kept apart here. Some results are limits rather than exact numbers.

recombinant GSK3β kinase, sequence (P49841 whole entry): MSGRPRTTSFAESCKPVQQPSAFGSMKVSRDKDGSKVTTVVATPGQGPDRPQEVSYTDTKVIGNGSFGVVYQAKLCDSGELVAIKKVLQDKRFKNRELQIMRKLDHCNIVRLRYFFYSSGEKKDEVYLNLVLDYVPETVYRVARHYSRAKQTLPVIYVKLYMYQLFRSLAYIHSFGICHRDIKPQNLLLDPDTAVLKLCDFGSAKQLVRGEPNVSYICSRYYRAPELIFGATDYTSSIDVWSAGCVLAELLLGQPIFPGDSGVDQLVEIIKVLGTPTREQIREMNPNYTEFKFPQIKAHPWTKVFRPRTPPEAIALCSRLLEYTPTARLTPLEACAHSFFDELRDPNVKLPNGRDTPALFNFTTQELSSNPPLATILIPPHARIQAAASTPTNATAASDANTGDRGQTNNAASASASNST

As for “2-(1-Isopropylpiperidin-4-yl)-N-(6-(1-methyl-1H-pyrazol-4-yl)isoquinolin-3-yl)thiazole-4-carboxamide [Compound 39]”, the pEC50 is 7.59 in assay [1] (setting [7]); 5.43 in assay [2] (setting [8]); 5.92 in assay [3]; 5.52 in assay [4]; 5.12 in assay [5]; 7.15 in assay [6].
For `CC(C)n1cc(C(=O)Nc2cc3cc(-c4cnn(C5CCN(C)CC5)c4)ccc3cn2)cn1` [Compound 1, 1-Isopropyl-N-(6-(1-(1-methylpiperidin-4-yl)-1H-pyrazol-4-yl)isoquinolin-3-yl)-1H-pyrazole-4-carboxamide], the pEC50 was 7.41 in assay [1] (setting [7]); 5.00 in assay [2] (setting [8]); 6.22 in assay [3] (Homo sapiens, 96 h); 6.02 in assay [4] (Homo sapiens, Fibroblast, 96 h); 5.46 in assay [5] (Homo sapiens, PBMC); 6.41 in assay [6] (Homo sapiens).
With `[2H]C([2H])([2H])n1cc(-c2ccc3cnc(NC(=O)c4cnn(C5CCNCC5)c4)cc3c2)cn1` [Compound 3, N-(6-(1-(Methyl-d3)-1H-pyrazol-4-yl)isoquinolin-3-yl)-1-(piperidin-4-yl)-1H-pyrazole-4-carboxamide], the pEC50 is 8.52 in assay [1]; less than 5.00 in assay [2]; 7.42 in assay [3] (Homo sapiens, 96 h); 7.13 in assay [4] (Homo sapiens, Fibroblast, 96 h); 5.98 in assay [5] (Homo sapiens, PBMC); 7.64 in assay [6] (Homo sapiens).
Turning to `CN1CCC(n2cc(C(=O)Nc3cc4cc(-c5cnn(C)c5)ccc4cn3)cn2)CC1` [Compound 4, N-(6-(1-Methyl-1H-pyrazol-4-yl)isoquinolin-3-yl)-1-(1-methylpiperidin-4-yl)-1H-pyrazole-4-carboxamide], the pEC50 was 8.70 in assay [1] (setting [7]); 5.83 in assay [2] (setting [8]); 7.46 in assay [3] (Homo sapiens, 96 h); 7.03 in assay [4] (Homo sapiens, Fibroblast, 96 h); 7.05 in assay [5] (Homo sapiens, PBMC); 7.85 in assay [6] (Homo sapiens).
On to `[2H]C([2H])([2H])n1cc(-c2ccc3cnc(NC(=O)c4cnn(C5CCN(C)CC5)c4)cc3c2)cn1` [Compound 5, N-(6-(1-(Methyl-d3)-1H-pyrazol-4-yl)isoquinolin-3-yl)-1-(1-methylpiperidin-4-yl)-1H-pyrazole-4-carboxamide], for which the pEC50 in assay [1] is 8.70; in assay [2] it was 5.69; in assay [3] (Homo sapiens, 96 h), 7.47; in assay [4] (Homo sapiens, Fibroblast, 96 h) it was 7.08; in assay [5] (Homo sapiens, PBMC), 6.66; in assay [6] (Homo sapiens), 7.66.
Regarding `CCN1CCC(n2cc(C(=O)Nc3cc4cc(-c5cnn(C)c5)ccc4cn3)cn2)CC1` [Compound 6, 1-(1-Ethylpiperidin-4-yl)-N-(6-(1-methyl-1H-pyrazol-4-yl)isoquinolin-3-yl)-1H-pyrazole-4-carboxamide], the pEC50 in assay [1] (setting [7]) was 8.52; in assay [2] (setting [8]), 5.77; in assay [3] (Homo sapiens, 96 h), 7.49; in assay [4] (Homo sapiens, Fibroblast, 96 h), 7.16; in assay [5] (Homo sapiens, PBMC) it was 6.89; in assay [6] (Homo sapiens), 7.82.
For the compound `Cn1cc(-c2ccc3cnc(NC(=O)c4cn(C5CCNCC5)nn4)cc3c2)cn1` [Compound 11, N-(6-(1-Methyl-1H-pyrazol-4-yl)isoquinolin-3-yl)-1-(piperidin-4-yl)-1H-1,2,3-triazole-4-carboxamide], the pEC50 in assay [1] (setting [7]) is 8.15; in assay [2] (setting [8]), 5.00; in assay [3] (Homo sapiens, 96 h), 6.56; in assay [4] (Homo sapiens, Fibroblast, 96 h), 6.22; in assay [5] (Homo sapiens, PBMC), 5.58.
Turning to `Cn1cc(-c2ccc3cnc(NC(=O)c4coc(C5CCN(CCF)CC5)n4)cc3c2)cn1` [Compound 21, 2-(1-(2-Fluoroethyl)piperidin-4-yl)-N-(6-(1-methyl-1H-pyrazol-4-yl)isoquinolin-3-yl)oxazole-4-carboxamide], the pEC50 is 7.80 in assay [1] (setting [7]); 5.88 in assay [2] (setting [8]); 5.90 in assay [3] (Homo sapiens, 96 h); 5.02 in assay [4] (Homo sapiens, Fibroblast, 96 h); less than 5.00 in assay [5] (Homo sapiens, PBMC). Besides, in assay [5] (Homo sapiens, PBMC, read-out: percent inhibition at 10 μM), the inhibition at 10 µM is 27.2%.

These data come from patent publication US10744128B2, “6-(5-membered heteroaryl)isoquinolin-3-yl-(5-membered heteroaryl) carboxamides and preparation and use thereof” (Samumed, LLC, priority 2017, dated 2020).
